US11065296B2, “Antimicrobial peptide, its analog and use” (City University of Hong Kong, priority 2018, dated 2021)
Entries after “also recorded” stand apart in the source; their conditions may differ. Peptide text beside a SMILES is read from it.

How the values were obtained:
[1] = system: Methicillin-resistant S. aureus ATCC BAA-41; assay type: cell-based
Protocol: (§2) MIC denotes the lowest concentration of an antimicrobial agent that can inhibit the growth of bacteria after overnight incubation.
(§3) Bacteria were grown in their respective media (Table 2 above) overnight at 37° C. or room temperature with constant shaking and then diluted to 10^6 CFU/ml in their respective medium. Stock solutions of peptides at 0.68 mM were prepared in distilled water. Bacteria and peptide were incubated (50 μl: 50 μl) to make the final peptide concentrations (0.68, 3.4, 6.8, 13.7, 34.1, 68.3, 136.5 μM) in a 96-microtitre plate and incubated for 24 h with constant shaking. […] Absorbance at 600 nm was detected every 3 h up to 24 h to obtain the growth curves. The minimal inhibition concentration (MIC) was defined as the lowest concentration of an antimicrobial agent that could inhibit the growth of bacteria after overnight incubation.

CpxR = experiment: Quantitative real-time PCR; assay type: cell-based; settings: E. coli
Excerpt: Each group has 6 biological replicates. […] Gene-specific primers were designed with Primer-BLAST (NCBI).

E. tarda [2] = experiment: Host resistance assay, Experiment Two: pre-injection 2 h before bacteria; assay type: in vivo, Medaka; settings: injected 2 h prior to E. tarda
Protocol: (§1) FIG. 11A is a plot showing the effect of Peptide A on viability of cultured mammalian cells, incubated for 48 h in the presence of Peptide A at different concentrations (μg/ml), as determined by MTT assay. Cell viability represented as peptide treated cell numbers over medium-only control. Statistically significant difference as compared to controls (*: p<0.05, **: p<0.01, n=4). FIG. 11B is a plot showing the ability of Peptide A to protect medaka from lethal challenge of E. tarda ([…]). Medaka was injected with 1 μl of Peptide A (0.68 mM), with 1 μl of E. tarda (10^7 CFU/ml) and Peptide A (0.68 mM) mixture, or with E. tarda alone (1 μl of E. tarda:10^7 CFU/ml). […] 20 fish per group. Log-rank (Mantel-Cox) test was applied for the comparison of survival curves (**: p<0.01).
The efficacy of the synthesized AMP to protect medaka against infection was characterized using host resistance assays with intraperitoneal (i.p.) injection of bacteria using a micro-injection machine (PV820 Pneumatic PicoPump). In Experiment One, 80 medaka fish were used and divided into four groups (20 fish in each group, male, 6 months): (1) Group 1 was injected with only 1 μl of PBS in each fish; (2) Group 2 was injected with only 1 μl of novel AMP (0.68 mM) in each fish; (3) Group 3 was injected with 1 μl of bacteria (at a titer of 5×10^7 CFU/ml); and (4) bacteria and novel AMP were mixed for 5 min and then 1 μl of the mixture was injected into Group 4 (Bacteria: 5×10^7 CFU/ml, AMP: 0.68 mM). In Experiment Two, 60 fish were used and divided into three groups: each fish was injected with 1 μl of PBS, ampicillin (5.7 mM) or Peptide A (1.36 mM). The fish were anesthetized in MS222 for 30 s before microinjection. After two hours, 1 μl of bacteria (5×10^7 CFU/ml) was injected into the fish. All of the fishes were kept under a static condition of 26° C.±1° C., with 14:10 hrs of a light-dark cycle. The water was replaced every two days. The fish were fed three times each day. The number of dead fish was counted on a daily basis until two weeks after the injections.

[3] = system: Vibrio alginolyticus ATCC 33840; assay type: cell-based
Protocol: as §2, §3

E. coli PQ37 = experiment: SOS induction (chromotest); assay type: cell-based; settings: E. coli PQ37, 120 min; Peptide A 3.4 μM, Piscidin 3.77 μM
Protocol: Results are expressed as 2^(−Delta Delta C (T)). […] Results are expressed as 2^(−Delta Delta C (T)).
E. coli PQ37 (Genotype: Sfi A and Lac Z fusion, lac Z) was cultured in lysogeny broth (LB) that contained 57.2 μM of ampicillin overnight (37° C.) and subcultured through 20 dilutions on another day so that OD600 equals to 0.2-0.4. PQ37 was incubated in 0.3 ml AMP (3.4 μM) or Piscidin ([…], 3.77 μM) for 2 hours and then re-suspended in the same volume of Z-buffer (Na2HPO4.7H2O 16.1 g/l, NaH2PO4.2H2O 6.24 g/L, KCl 0.75 g/L, MgSO4.7H2O 0.246 g/L and b-mercaptoethanol 0.3% (v/v)) for carrying out a β-galactosidase assay (β-ga) and alkaline phosphatase assay (ap), respectively. The bacteria were lysed with 0.1 ml of 0.1% SDS and 0.15 ml of chloroform. For the β-ga assay, the reaction was started by adding 0.6 ml of ortho-Nitrophenyl-β-galactoside (ONPG; Catalog number 34055, ThermoFisher Scientific) for color development and then stopped with the addition of 2 ml of 1 M NaCO3 solution. For ap acsay, the reaction was started by adding 0.6 ml of para-Nitrophenylphosphate (PNPP; Catalog number 34045, ThermoFisher Scientific) for color development which was then terminated by the addition of 1 ml of 2 M HCl solution and 1 ml of 2 M Tri-HCl to restore the colour. The absorbance was read at 420 nm against a blank without bacteria. The induction factor (IF) was calculated as the ratio R(x)/R(0) (R(x)=β-g/ap determined for the tested peptide; R(0)=β-g/ap determined for the LB). Furacin (antibiotic) and Piscidin were chosen as the controls. Each experiment was performed in triplicate.

E. tarda [4] = experiment: Host resistance assay, Experiment One: co-injection of bacteria and peptide; assay type: in vivo, Medaka; settings: co-injected with Peptide A (0.68 mM, 1 μl) and E. tarda
Protocol: as §1
The efficacy of the synthesized AMP to protect medaka against infection was characterized using host resistance assays with intraperitoneal (i.p.) injection of bacteria using a micro-injection machine (PV820 Pneumatic PicoPump). […] The number of dead fish was counted on a daily basis until two weeks after the injections.

CpxA = settings: E. tarda, 6.8 μM, 1 hr
Protocol: FIG. 9B is a plot showing the relative expression levels of CpxA, CpxR and RpoE in E. tarda upon treatment with Peptide A for 60 min at 6.8 μM. Results are expressed as 2^(−Delta Delta C (T)). FIG. 9C is a plot showing the CpxR gene expression in E. tarda after treatment with Peptide A (6.8 μM), Piscidin (7.5 μM), Ampicillin (143 μM) and Peptide A+Ampicillin (3.4 μM; 71.5 μM) for 1 hour. Results are expressed as 2^(−Delta Delta C (T)). […] Results expressed as log 2 fold change normalized with control group.
E. tarda or E. coli were treated with AMP or antibiotics or not treated as the control at inhibitory or subinhibitory for 1 hr. After that, the total RNA of the cells were collected by using the RNAprep pure cell/bacteria kit (TIANGEN), then reverse-transcribed into cDNA by using the One-Step FastQuant RT reagent kit with gDNase (TIANGEN). 18S ribosomal RNA (18S) was used as reference gene for qPCR normalization. Each group has 6 biological replicates. In brief, quantitative polymerase chain reaction (qPCR) assays were performed by using fluorescent dye powder SYBR Green PCR Master Mix and the ABI 7500 System. Gene-specific primers were designed with Primer-BLAST (NCBI). […] The relative expression levels (fold change) of the tested genes were calculated by using the relative expression based on the 2^(−Delta Delta C (T)) Method.

[5] = system: six mammalian cell lines (HeLa, MDA-MB, MC3T3, MCF7, H1299, and AG06858); experiment: In vitro toxicity, 48 hour MTT assay; assay type: cell-based, Human; Mouse; settings: concentrations close to the MIC for gram-negative bacteria
Protocol: as §1
Mammalian cell lines (Hela, MDA MB, MC3T3, MCF7, H1299, and AG06858) were seeded into 96 well-plates one day before treatment at a density of 3×10^5 cells/ml for a 48 hour MTT assay. The peptides were directly dissolved in the medium to make a 136.5 μM stock. […] The resulting solution was measured by using a microplate reader (BMG Polarstar Optima) at a wavelength of 570 nm. The optical density (OD) values were recorded and cell viability was calculated based on the OD readings normalized to the untreated cells.

[6] = system: Multidrug-resistant S. aureus ATCC BAA-44; assay type: cell-based
Protocol: as §2, §3

[7] = system: Staphylococcus aureus ATCC 6538; assay type: cell-based
Protocol: as §2, §3

[8] = system: Aeromonas hydrophila ATCC 49140; assay type: cell-based
Protocol: as §2, §3

[9] = system: panel of Gram-positive and Gram-negative bacteria; experiment: Antibacterial activity against a panel of bacteria (summary); assay type: cell-based; settings: including beta-lactam resistant bacteria
Protocol: The antibacterial activity of the Peptide A against a panel of Gram-positive and Gram-negative bacteria (FIG. 5A, 5B and Table 2) was determined.
as §3

Streptococcus Faecalis = assay type: cell-based
Protocol: as §2, §3

SMILES: CC[C@H](C)[C@H](N)C(=O)N[C@@H](CCCNC(=N)N)C(=O)N[C@H](C(=O)N[C@H](C(=O)N[C@@H](CC(C)C)C(=O)N[C@@H](CCCNC(=N)N)C(=O)N[C@@H](C)C(=O)N[C@@H](CCC(N)=O)C(=O)NCC(=O)N[C@@H](C)C(=O)N[C@@H](CC(C)C)C(=O)N[C@@H](CCCCN)C(=O)N[C@H](C(=O)O)[C@@H](C)CC)[C@@H](C)CC)[C@@H](C)CC [Peptide A, IRIILRAQGALKI] (H-IRIILRAQGALKI-OH; N-terminus and C-terminus assumed)
- MICs [1]: 21.8 µM
- CpxR expression (CpxR): inhibition of CpxR
- initial survival rate (E. tarda [2]; one day post injection, Peptide A 1.37 mM, Ampicillin 5.7 mM, 1 μl): 85%
- effect on E. tarda infection / surviving fish (E. tarda [2]; two weeks after infection): still higher than the controls
- MICs [3]: 34.1 µM
- SOS response (induction factor) (E. coli PQ37): consistent induction of SOS response
- medaka survival rate (E. tarda [4]): 80%
- CpxA mRNA expression (CpxA): remains unaffected
- cytotoxic effect (cell viability, MTT) [5]: No obvious toxicity; also recorded: relatively nontoxic
- MICs [6]: 21.8 µM
- MICs [7]: 13.7 µM
- MICs [8]: 13.7 µM
- effect on antibiotic resistant strains [9]: effective on a number of antibiotic resistant strains
- MICs (Streptococcus Faecalis): 34.1 µM
